Test results published in paper PMC7744269 (Bioorganic & medicinal chemistry, 2010).

Columns and labels:
[1] = molecular target: T1, Ureaplasma parvum thymidine kinase (UpTK) (Ureaplasma parvum serovar 3, UniProt Q9PPP5); experiment: Phosphate transfer assay with [γ-32P]-ATP; type: biochemical; conditions: for Vmax values of UpTK, times lower than with AZT: compared with AZT
T1 sequence (Q9PPP5 1-223): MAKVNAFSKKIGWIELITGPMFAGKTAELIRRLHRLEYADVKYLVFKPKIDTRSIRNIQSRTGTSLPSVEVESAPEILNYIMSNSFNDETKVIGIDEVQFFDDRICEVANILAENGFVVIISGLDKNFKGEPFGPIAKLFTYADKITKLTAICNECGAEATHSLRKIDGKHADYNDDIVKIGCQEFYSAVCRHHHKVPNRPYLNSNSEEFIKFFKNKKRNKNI

[2] = tested on: viruses (HIV, Vaccinia virus, Cowpox virus, etc.); conditions: previously reported; cited from earlier work
[3] = molecular target: T2, human thymidine kinase 1 (hTK1) (Homo sapiens, UniProt P04183); experiment: IC50 determination, DE-81 filter paper [3H]-dThd assay, hTK1; type: biochemical
T2 sequence (P04183 1-234): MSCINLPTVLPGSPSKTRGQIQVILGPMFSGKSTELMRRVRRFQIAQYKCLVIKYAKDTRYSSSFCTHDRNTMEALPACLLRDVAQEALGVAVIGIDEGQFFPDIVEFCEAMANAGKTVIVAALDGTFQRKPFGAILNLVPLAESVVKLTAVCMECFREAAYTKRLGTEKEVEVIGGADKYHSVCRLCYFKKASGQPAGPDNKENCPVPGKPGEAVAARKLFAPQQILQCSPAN

## Cc1cn([C@H]2C[C@H](n3cc(-c4ccc(F)cc4)nn3)[C@@H](CO)O2)c(=O)[nH]c1=O [Compound 13, 3′-(4-(4-Fluorophenyl)-1,2,3-triazole-1-yl)-2′-deoxythymidine]
[1]; UpTK vs hTK1
  Phosphorylation with UpTK compared to hTK1 (relative activity): five times more potent with UpTK than hTK1
[1]
  Vmax values of UpTK, times lower than with AZT: 3–4
[2]
  Antiviral activity: devoid of significant antiviral activity

## Cc1cn([C@H]2C[C@H](n3cc(-c4ccccn4)nn3)[C@@H](CO)O2)c(=O)[nH]c1=O [Compound 12, 3′-(4-(2-Pyridine)-1,2,3-triazole-1-yl)-2′-deoxythymidine]
[1]
  Vmax values of UpTK, times lower than with AZT: 3–4
[2]
  Antiviral activity: devoid of significant antiviral activity
[3]
  IC50: 40 to 50 µM

## Cc1cn([C@H]2C[C@H](n3cc(-c4ccccc4)nn3)[C@@H](CO)O2)c(=O)[nH]c1=O [Compound 9, 3′-(4-Phenyl-1,2,3-triazol-1-yl)-3′-deoxythymidine]
[1]
  Vmax values of UpTK, times lower than with AZT: 3–4
[2]
  Antiviral activity: devoid of significant antiviral activity

## CCCc1cn([C@H]2C[C@H](n3cc(C)c(=O)[nH]c3=O)O[C@@H]2CO)nn1 [Compound 6, 3′-(4-Propyl-1,2,3-triazol-1-yl)-3′-deoxythymidine]
[1]; compared to dThd (set to 100%)
  Relative efficiency with UpTK: 1.6%

## Cc1cn([C@H]2C[C@H](n3cc(CO)nn3)[C@@H](CO)O2)c(=O)[nH]c1=O [Compound 1, 3′-(4-Hydroxymethyl-1,2,3-triazol-1-yl)-3′-deoxythymidine]
[2]
  Antiviral activity: devoid of significant antiviral activity
